Series [1] deals with human tTreg. Nature of the series: Foxp3 expression in expanded tTreg by flow cytometry. The conditions noted are these: for Foxp3 protein expression at the population level (% Foxp3+CD127−): 50 nM RNA, antagomir vs scrambled P<0.05. The class given is cell-based. The method, then: (§1) tTreg and CD4+ T-cell cultures, generated as described herein, were frozen on days 14 and 7, respectively. Frozen cells were thawed and re-stimulated with anti-CD3/CD28 mAb-coated Dynabeads (Life Technologies, Carlsbad, Calif.) at 1:3 (cell to bead) ratios in the presence of recombinant IL-2. After 6 days, cultures were washed, re-suspended at 1×10^6 cells/ml, and nanoparticle-encapsulated RNA (50 nM; Scramble/Antagomir, Table 4: EXIQON, Woburn, Mass.) or TRAF6 inhibitor (8 μM, Darmstadt, Germany) or NF-kB inhibitor (PS-1145, 3 μM or 6 μM, Millennium Pharmaceuticals, Cambridge, Mass.) were added. DMSO were vehicles and used as controls. Cells were cultured another 2 days without further manipulation, and were harvested and assayed as listed. For some experiments, tTreg were kept in culture longer (as indicated) without further antagomir addition.
(§2) Human-specific antibodies used for flow cytometry included: CD4 (RPA-T4), CD8 (RPA-T8), CD25 (M-A251), CD45RA (HI100), IFN-gamma, IL-17a, annexin V (PE), 7-AAD (FITC) were purchased from BD Pharmingen, while Foxp3 (clone 249D) was obtained from BioLegend and Ki67 from eBioscience. For cytokine analysis, cells were pre-treated by PMA, ionomycin and brefeldin A for 6 hours and then stained by different cytokine antibodies. The annexin V (PE)/7-AAD (FITC) were applied to assess the apoptosis of tTreg. Acquisition was performed using a LSRII (BD Bioscience) and data were analyzed using FlowJo software (TreeStar) or IDEA (Admin). Nuclear localization of NF-kB was quantitated using an imaging flow cytometer (Imagestream, Amnis Corp; Seattle, Wash.) by intracellularly staining tTreg with anti-NF-kB (vendor) and, after washing, incubating with DRAQ5 for 15 minutes at 10 μM final concentration.

In series [2] the test system is human tTreg. As to the kind of experiment: CFSE in vitro suppression assay (anti-CD3-mediated CD8+ T cell proliferation). The format is cell-based. The method, then:
The in vitro-suppressive capacity of expanded tTregs was assessed with a carboxy fluorescein succinimidyl ester (CFSE) inhibition assay as previously published (Hippen et al., Blood, 2008, 112(7):2847-57). Briefly, PBMNCs were purified, labeled with CFSE (Invitrogen), and stimulated with anti-CD3 mAb-coated beads (Dynal) ±cultured tTreg (1:2 to 1:32 tTregs/PBMNCs). On day 4, cells were stained with antibodies to CD4 and CD8, and suppression was determined from the Division Index (FlowJo, TreeStar). nTregs suppressed CD4 and CD8 T cell responses equivalently and only CD8 data are presented.

Series [3] concerns TRAF6. As to the kind of experiment: TRAF6 mRNA (RT-PCR) and protein (flow cytometry) expression in tTreg. The format is cell-based, human. Particulars: expanded tTregs; for TRAF6 mRNA expression: RT-PCR. The procedure:
as §1
as §2, with “For cytokine analysis, cells were pre-treated by PMA, ionomycin and brefeldin A for 6 hours and then stained by different cytokine antibodies. The annexin V (PE)/7-AAD (FITC) were applied to assess the apoptosis of tTreg.” left out
(§3) RNA was extracted from cell pellets using RNeasy Mini Kit with on-column DNase digestion (Qiagen; Hilden, Germany). cDNA synthesis was performed as described in the Expression Analysis Technical Manual (Affymetrix; Santa Clara, Calif.). GAPDH was used as control gene and related gene expression (Bcl-2, Mcl-1, Bcl-xL, BID and BAX; all from IDT, Coralville, Iowa), was analyzed on an Applied Biosystems 7500 Real-Time PCR System using Taqman Universal PCR Master Mix #4304437 and Assay on Demand primer/probe kits (Applied Biosystems; Waltham, Mass.). […]

Series [4] relates to control CD4 T-cells. As to the kind of experiment: Foxp3 expression and suppressive function of control CD4 T-cells. The format is cell-based, human. The conditions noted are these: antagomir for final 2 days. The method, then: as §1, with “Cells were cultured another 2 days without further manipulation, and were harvested and assayed as listed. For some experiments, tTreg were kept in culture longer (as indicated) without further antagomir addition.” left out
as §2, with “For cytokine analysis, cells were pre-treated by PMA, ionomycin and brefeldin A for 6 hours and then stained by different cytokine antibodies. The annexin V (PE)/7-AAD (FITC) were applied to assess the apoptosis of tTreg.” left out, “concentration. […]” for “concentration.”

For series [5], the system named is human tTreg. As to the kind of experiment: Intracellular IFN-gamma assay after PMA/ionomycin re-stimulation. The format is cell-based. The conditions noted are these: final 2 days treatment. The method, then:
as §2

The test system of series [6] is miR-146b-5p. Nature of the series: miR-146b-5p knockdown in expanded tTreg by qRT-PCR. The format is cell-based, human. The method, then: as §1, with “For some experiments, tTreg were kept in culture longer (as indicated) without further antagomir addition.” left out
as §3
(In qPCR the cycle at which signal appears reflects the starting amount.)

For series [7], the system named is human tTreg. As to the kind of experiment: tTreg expansion, viability (annexin V/7-AAD) and Ki-67 staining. The format is cell-based. The method, then:
as §1, §2

In series [8] the test system is NF-kB. Nature of the series: NF-kB nuclear localization by imaging flow cytometry. The class given is cell-based, human. The conditions noted are these: tTreg, 2 days, vs untreated or scramble-treated. The procedure:
as §2
TRAF6 is critical for TCR-mediated activation of NF-kB, and acts by ubiquitinylating TAK1, leading to activation of IKK and destruction of IkB, which allows NF-kB to translocate to the nucleus. To determine whether miR-146 antagomir enhanced NF-kB nuclear translocation, in vitro expanded tTreg were left untreated or treated for 2 days with scrambled RNA or miR-146b-5p antagomir, stained for CD4, NF-kB and DRAQ5 (a nuclear marker) and analyzed using imaging flow cytometry. […]
In general terms: A flow cytometer gives signals particle by particle.

The subject of series [9] is human tTreg. Nature of the series: qRT-PCR of NF-kB-responsive, anti- and pro-apoptotic genes in tTreg. The format is cell-based. The procedure: RNA was extracted from cell pellets using RNeasy Mini Kit with on-column DNase digestion (Qiagen; Hilden, Germany). cDNA synthesis was performed as described in the Expression Analysis Technical Manual (Affymetrix; Santa Clara, Calif.). GAPDH was used as control gene and related gene expression (Bcl-2, Mcl-1, Bcl-xL, BID and BAX; all from IDT, Coralville, Iowa), was analyzed on an Applied Biosystems 7500 Real-Time PCR System using Taqman Universal PCR Master Mix #4304437 and Assay on Demand primer/probe kits (Applied Biosystems; Waltham, Mass.). For TLDA assay, TLDA v2.0 was performed on the 7900HT real-time PCR system (Applied Biosystems) according to the manufacturer's protocol. Average delta CT was acquired from the results for further analysis. PCR cycling conditions were performed as follows: 95° C. for 15 s and 60° C. for 1 min, 40 cycles and then 95° C. for 10 min. To normalize RNA input, Human RNU44 (Table 4) small RNA was used as an internal control.

As to `O=C(Nc1cc(Cl)cc2c1[nH]c1cnccc12)c1cccnc1` [PS1145, reference compound], the Foxp3 expression result in series [1] (tTreg, NF-kB inhibitor 3 μM or 6 μM, final 2 days, vs DMSO) is “decreased Foxp3 expression in a dose-dependent manner”. Further, the “in vitro suppressive function” value in series [2] (tTreg, NF-kB inhibitor, final 2 days) is given as “significantly decreased in vitro suppressive function”.

Regarding “Scramble: nanoparticle-encapsulated scrambled control RNA, TAA CAC GTC TAT ACG CCC A (SEQ ID NO: 1) (TAACACGTCTATACGCCCA; nanoparticle-encapsulated, chemistry not given here) [reference compound]”, the “Foxp3 protein expression at the population level (% Foxp3+CD127−)” value in series [1] (tTreg, final 2 days) was 73.1%±4.6%. Besides, the “TRAF6 mRNA expression” value in [3] was “no effect was observed”.

In the case of “miR-146b-5p antagomir: nanoparticle-encapsulated antagomir RNA (EXIQON), AGCCTATGGAATTCAGTTCTC (SEQ ID NO: 2) (AGCCTATGGAATTCAGTTCTC; nanoparticle-encapsulated Exiqon antagomir, chemistry not given here)”, in series [4], the “FoxP3 expression in control CD4 T-cells” value is on record as “no effect on FoxP3 expression” and the “suppressive function of control CD4 T-cells” value is recorded as “no effect on FoxP3 expression or suppressive function”. Further, the Foxp3 expression result in series [1] (day 8 after single treatment) is given as “maintained their higher Foxp3 expression”. For the same compound, the “Foxp3 protein expression at the population level (% Foxp3+CD127−)” value in series [1] (tTreg, final 2 days) was 85.5%±3.5%. Further, the “Foxp3 protein expression at per-cell level” value in [1] (tTreg, 2 days, compared to scrambled group) is on record as “increased Foxp3 protein expression”. In addition, in series [5], the “IFN-gamma expression in expanded tTregs” value is “expression was not affected”. The compound also had a miR-146b expression reduced in series [6] (day 8 after a single antagomir treatment (not shown)) of 70%. In series [6] (tTreg, nanoparticle-encapsulated antagomir 50 nM, 2 days, qRT-PCR), this compound registered a miR-146b-5p knockdown efficiency of more than 95%. For the same compound, the tTreg viability entry in series [7] (2 days treatment, annexin V/7-AAD) is recorded as “increased viability”. Moreover, in series [7] (2 days treatment, n=5), the “Ki67 MFI level” value is listed as “higher relative Ki67 MFI level”. For the same compound, the tTreg expansion entry in [7] (day 8 post single treatment, vs untreated or scrambled RNA) is recorded as “expanded significantly more”. The tTreg expansion entry in series [7] (initial 2 day treatment period) is reported as “no significant difference in expansion”. Also, the suppressive function result in series [2] (day 8 after single treatment) was “maintained their higher Foxp3 expression and suppressive function”. In series [2] (tTreg:PBMC 1:8 to 1:32, antagomir-treated at 1:16 as suppressive as scramble-treated at 1:8), the “increase in efficacy of tTreg suppressive function” value is approximately 2 fold. For the same compound, the “TRAF6 mRNA expression” value in series [3] is listed as “significantly higher TRAF6 mRNA expression”. Also, the TRAF6 protein expression entry in series [3] (flow cytometry, vs untreated or scramble-treated) is recorded as “significantly enhanced TRAF6 protein expression”. Moreover, in series [8], the “NF-kB/DRAQ5 similarity score (nuclear localization)” value is reported as “significantly higher similarity scores”. Further, in [9] (anti-apoptotic gene, tTreg), the Bcl-xL expression entry was “increased expression” and the Mcl-1 expression result was “increased expression”. Also, the c-myc expression increase in series [9] (over untreated or scramble-treated tTreg) was more than 3 fold. Besides, in series [9] (pro-apoptotic gene, tTreg), the BAX expression result was “decreased expression” and the BID expression entry is reported as “decreased expression”.

Source of the values: US20220348870A1, “MATERIALS AND METHODS FOR MODIFYING THE ACTIVITY OF T CELLS” (Regents of the University of Minnesota, priority 2016, published 2022).
